Drawing on patent EP1599478B1, “DIHYDROPTERIDINONES, METHOD FOR THE PRODUCTION AND USE THEREOF IN THE FORM OF DRUGS” (Boehringer Ingelheim Pharma GmbH & Co.KG, priority 2003, dated 2004), this text covers IC50 for nine molecules.

Each structure is given as a SMILES string.

One experiment concerns HeLaS3 Zellen. Description: Cytotoxicity test on cultured human tumour cells (AlamarBlue). Format: cell-based. The conditions noted are these: HeLa S3, 72 h, read-out: HELA. From the text: Die Wirkung der erfindungsgemäBen Verbindungen wurde im Cytotoxizitätstest an kultivierten humanen Tumorzellen und/oder in einer FACS-Analyse, beispielsweise an HeLaS3-Zellen, bestimmt.
Messung der Cytotoxizität an kultivierten humanen Tumorzellen
Zur Messung der Cytotoxizität an kultivierten humanen Tumorzellen wurden Zellen der zervikalen Carcinoma Tumorzell-Linie HeLaS3 (erhalten von American Type Culture Collection (ATCC)) in Ham's F12 Medium (Life Technologies) und 10% fötalem Rinderserum (Life Technologies) kultiviert und in der log-Wachstumsphase geerntet. Anschließend wurden die HeLaS3 Zellen in 96-well Platten (Costar) mit einer Dichte von 1000 Zellen pro well eingebracht und über Nacht in einem Inkubator (bei 37°C und 5 % CO2) inkubiert, wobei auf jeder Platte 6 wells nur mit Medium gefüllt wurden (3 wells zur Mediumkontrolle, 3 wells zur Inkubation mit reduzierten AlamarBlue). Die Wirksubstanzen wurden in verschiedenen Konzentrationen (gelöst in DMSO; Endkonzentration: 1%) zu den Zellen zugegeben (jeweils als Dreifachbestimmung) Nach 72 Stunden Inkubation wurden zu jeden well 20 µl AlamarBlue (AccuMed International) zugesetzt, und die Zellen für weitere 7 Stunden inkubiert. Zur Kontrolle wurde zu 3 wells je 20 µl reduziertes Alamar Blue gegeben (AlamarBlue Reagenz, das für 30 min autoklaviert wurde). Nach 7 h Inkubation wurde der Farbumsatz des AlamarBlue Reagenz in den einzelnen wells in einem Perkin Elmer Fluoreszenspektrophotometer bestimmt (Exitation 530 nm, Emission 590 nm, Slits 15, Integrate time 0.1). Die Menge an umgesetzten AlamarBlue Reagenz repräsentiert die metabolische Aktivität der Zellen. Die relative Zellaktivität wurde in Prozent der Kontrolle (HeLa S3 Zellen ohne Inhibitor) berechnet und die Wirkstoffkonzentration, die die Zellaktivität zu 50% hemmt (IC^50) abgeleitet. Die Werte wurden hierbei aus dem Mittelwert von drei Einzelbestimmungen - unter Korrektur des Leerwertes (Mediumkantrolle)- berechnet.
A general note: The colour change of resazurin is a common sign of viable cells or microbes.
Regarding `CC[C@@H]1C(=O)N(C)c2cnc(Nc3ccc(C(=O)NC4CCN(C)CC4)cc3OC)nc2N1C1CCCC1` [compound 46], the IC50 was found to be 0.012 µM.

Staying with this experiment, now noted: HeLa S3, HeLa cells, unit inferred, read-out: HELA.
Consider `COc1cccc(N2c3nc(Nc4ccc(C(=O)NC5CCN(C)CC5)cc4OC)ncc3N(C)C(=O)[C@H]2C)c1` [compound 224], for which the IC50 came to 1.06 µM.

As for `COc1cccc(N2c3nc(Nc4ccc(C(=O)NC5CCN(C)CC5)cc4)ncc3N(C)C(=O)[C@H]2C)c1` [compound 225], the IC50 amounted to 1.18 µM.

Consider `COc1cc(C(=O)NC2CCN(C)CC2)ccc1Nc1ncc2c(n1)N(c1ccccc1OC)[C@H](C)C(=O)N2C` [compound 226], for which the IC50 was 0.295 µM.

As for `COc1cc(C(=O)NC(C)(C)CN2CCCC2)ccc1Nc1ncc2c(n1)N(c1ccccc1OC)[C@H](C)C(=O)N2C` [compound 227], the IC50 came out at 0.853 µM.

Turning to `COc1cc(C(=O)NC2CCNCC2)ccc1Nc1ncc2c(n1)N(C1CCCC1)[C@H](C)C(=O)N2C` [compound 238], the IC50 is 0.015 µM.

For `CC[C@@H]1C(=O)N(C)c2cnc(Nc3ccc(C(=O)NC(C)(C)CN4CCOCC4)cc3OC)nc2N1C1CCCC1` [compound 239], the IC50 amounted to 0.051 µM.

With `COc1cc(C(=O)NC(C)(C)CN(C)C)ccc1Nc1ncc2c(n1)N(C1CCCCC1)[C@H](C)C(=O)N2C` [compound 240], the IC50 came out at 0.017 µM.

`CC[C@@H]1C(=O)N(C)c2cnc(Nc3ccc(C(=O)NC(C)(C)CN4CCN(C)CC4)cc3OC)nc2N1CCC(C)C` [compound 241]: the IC50 is 0.044 µM.
